Reference: patent US20210395327A1, “Growth Hormone-Releasing Hormone Antagonists and Uses Thereof” (United States Government As Represented By The Department …, priority 2019, published 2021)
Non-standard residues stand in square brackets, D forms with d. Residues, ends and D or L forms follow the SMILES beside them. *: point of attachment. Phenylacetyl(2,3,4,5,6-F5) = O=C(Cc1c(F)c(F)c(F)c(F)c1F)*; Phe(F5) = N[C@@H](Cc1c(F)c(F)c(F)c(F)c1F)C(=O)O; Phe(4-Cl) = N[C@@H](Cc1ccc(Cl)cc1)C(=O)O; hArg = N=C(N)NCCCC[C@H](N)C(=O)O; 12Ado = NCCCCCCCCCCCC(=O)O; Nle = CCCC[C@H](N)C(=O)O; Abu = CC[C@H](N)C(=O)O

What was measured:
[1] = tested on: HCC1806 breast cancer cells; assay: In vitro cell viability, HCC1806; type: cell-based, human; details: Table 3B; 5 μM for 72 H; MIA-602 = 1
Outline: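 Potency is reported as percent inhibition of viability compared with the reference antagonist MIA602, measured with CellTiter 96 aqueous one solution reagent. Serum-starved cells (0.5% FBS, 24 h) were treated for 72 h, mostly at 5 μM, otherwise 2 μM.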

[2] = tested on: pancreatic cancer PANC-1 xenograft; assay: Xenograft tumor growth in nude mice, PANC-1; type: in vivo; details: Table 4A, Pancreatic Ca PANC-1, 7 weeks; for % Inhibition: vs control
Experimental: (§1) The peptides' activity was compared with GHRH antagonist MIA-602. All statistical analyzses were performed from comparing GHRA antagonists to non-treated tumor (control).
(§2) Peptides and chemicals. GHRH antagonists MIA-602 and AVR-GHRH antagonists (see Table 2 above) were synthesized by solid phase methods and purified by HPLC. The peptides were dissolved in DMSO and further diluted in 10% 1,2-propanediol. The final concentration of peptides was 50 µg/ml in 10% 1,2-propanediol containing 0.1% of DMSO.
(§3) Cell culture. Human cancer cell lines including pancreatic (PANC-1 and CFPAC-1), lung (HCC827 and H460), stomach (NCI-N87), prostate (PC3), brest (MX-1 and HCC-1806), colorectal (HT-29), and ovarian (SK-OV-3 and OVCAR-3) were obtained from the American Type Culture Collection (ATCC) and cultured at 37° C. in a humidified 95% air/5% CO2 atmosphere in the medium recommended by ATCC.
(§4) Xenograft models of human cancers in nude mice. Female athymic (NCr nu/nu) nude mice, 5- to 6-weeks-old, obtained from the Envigo labs (Tampa, Fla.), were housed in laminar airflow cabinets under pathogen-free conditions with a 12-h light/12-h dark schedule, and were fed autoclaved standard chow and water. To generate mice with xenografted tumors, tumor xenografts were initiated by subcutaneous (s.c.) injection of 107 human cancer cells into female nude mice. After about 4 weeks the resulting tumors were dissected and collected after removing necrosis tissues. The tumors were then cut into particles with size of 3 mm3 and transplanted s.c. by trocar needle into experimental animals. When tumors grew to the size of 50-60 mm3 (by volume), mice were randomized into groups and treated daily for 4-8 weeks by subcutaneous administration of 5 μg of GHRH antagonists MIA-602 or AVR-compounds (2-10 μg as indicated), or vehicle solutions (0.1% DMSO in 10% 1,2-propanediol) respectively. Tumor sizes were measured weekly.
(§5) Statistical analysis. One-way ANOVA followed by Bonferroni comparison were performed. Data are expressed as Mean±SEM. To determine statistical significance between animal groups, two-tailed Student's t-test was conducted. Differences were considered significant when p<0.05.
(§6) Results. […] FIG. 1A-N represents in vivo inhibition of tumor growth during the treatment with GHRH antagonist MIA-602 and selected AVR antagonists in nude mice xenografted with various human tumors including pancreatic cancer PANC-1 (FIG. 1A) and CFPAC-1 (FIG. 1I); lung cancer HCC827 (FIGS. 1B, C) and H460 (FIG. 1H); stomach cancer N87 (FIGS. 1D-F); colon cancer HT-29 (FIG. 1G); breast cancer MX-1 and HCC-1806 (FIGS. 1J, K); ovarian cancer SK-OV-3 and OVACAR-3 (FIGS. 1 L, M) and prostate cancer PC3 (FIG. 1N). See also Table 5.

[3] = tested on: SK-OV-3 ovarian cancer cells; assay: In vitro cell viability, SK-OV-3; type: cell-based, human; details: Table 3B; * at 2 μM for 72 H; MIA-602 = 1
Experimental: The inhibitory effects of the various synthesized GHRH antagonists were tested in cell proliferation assays in various human cancer cell lines including stomach cancer (KATOIII, N87), colon cancer (HT-29), urothelial cancer (J82, RT4), pancreatic cancer (PANC-1, CFPAC-1), prostatic cancer (PC3), breast cancer (MX-1, HCC1806), ovarian cancer (SK-OV-3, OVCAR-3) and lung cancer (HCC827, H460).
Cell culture. Human cancer cell lines including pancreatic (PANC-1 and CFPAC-1), lung (HCC827 and H460), stomach (NCI-N87 and KATOIII), urothelial (J82, RT4), prostatic (PC3), breast (MX-1 and HCC 1806), colorectal (HT-29), and ovarian (SK-OV-3 and OVCAR-3) were obtained from the American Type Culture Collection (ATCC) and cultured at 37° C. in a humidified 95% air/5% CO2 atmosphere in the medium recommended by ATCC.
In vitro cell viability. Cell viability was analyzed as follows: cancer cells including pancreatic (PANC-1 and CFPAC-1), lung (HCC827 and H460), stomach (NCI-N87 and KATOIII), urothelial (J82, RT4), prostatic (PC3) and breast (MX-1 and HCC 1806), colorectal (HT-29) and ovarian (SK-OV-3 and OVCAR-3) were grown on 96 well plates to ˜60% confluence, the cells were starved for 24 h in culture medium containing 0.5% FBS. Cells were then treated with GHRH antagonists MIA602 AVR compounds at concentrations of 1, 2.5 or 5 μM, or vehicle (0.1% DMSO) in quintuplicates for 72 hours. The medium was replaced every 48 hours. Cell viability was measured using CellTiter 96 aqueous one solution kit (Promega). Inhibitory effects of tested AVR compounds in comparison to that of MIA602 are presented as inhibitory potency.
Inhibitory effects of selected AVR compounds in comparison to that of MIA602 are presented as inhibitory potency (e.g., percentage of inhibition). […] The cell lines tested including lung cancer HCC827 (FIG. 2A), pancreatic cancer CFPAC-1 (FIG. 2B), stomach cancer N87 (FIG. 2C), colon cancer HT-29 (FIG. 2D), breast cancers MX-1 and HCC1806 (FIGS. 2 E, F). […]

[4] = tested on: ovarian cancer OVCAR-3 xenograft; assay: Xenograft tumor growth in nude mice, OVCAR-3; type: in vivo; details: Table 4M, Ovarian Ca OVCAR-3, 9 weeks; for % Inhibition: vs control
Experimental: as §1, §2, §3, §4, §5, §6

[5] = tested on: breast cancer HCC-1806 xenograft; assay: Xenograft tumor growth in nude mice, HCC-1806; type: in vivo; details: Table 4K, Breast Ca HCC-1806, 5 weeks, 5 μg/day s.c.
Experimental: as §1, §2, §3, §4, §5, §6

[6] = tested on: colon cancer HT-29 xenograft; assay: Xenograft tumor growth in nude mice, HT-29; type: in vivo; details: Table 4G, Colon Ca HT-29, 6 weeks; for % Inhibition: vs control
Experimental: as §1, §2, §3, §4, §5, §6

## CCCC[C@H](NC(=O)[C@@H](NC(=O)[C@H](CC(=O)O)NC(=O)[C@H](CCC(N)=O)NC(=O)[C@H](CC(C)C)NC(=O)[C@H](CC(C)C)NC(=O)[C@H](CCCCN)NC(=O)[C@H](CCCNC(=N)N)NC(=O)[C@H](C)NC(=O)[C@H](CO)NC(=O)[C@H](CC(C)C)NC(=O)[C@H](CCC(N)=O)NC(=O)[C@H](CC)NC(=O)[C@H](CC(C)C)NC(=O)[C@@H](NC(=O)[C@H](CCCCN)NC(=O)[C@H](CCCNC(=N)N)NC(=O)[C@H](Cc1ccc(OC)cc1)NC(=O)[C@H](CCCCNC(=N)N)NC(=O)[C@H](C)NC(=O)[C@@H](NC(=O)[C@H](Cc1c(F)c(F)c(F)c(F)c1F)NC(=O)[C@@H](NC(=O)[C@H](C)NC(=O)[C@H](CC(=O)O)NC(=O)[C@@H](CCCNC(=N)N)NC(=O)[C@H](Cc1ccc(O)cc1)NC(=O)CCCCCCCCCCCNC(=O)Cc1c(F)c(F)c(F)c(F)c1F)[C@@H](C)CC)[C@@H](C)O)C(C)C)[C@@H](C)CC)C(=O)N[C@H](CCCNC(=N)N)C(=O)N[C@@H](CCCCNC(=N)N)C(=O)NCCCCCCCCCCCC(N)=O [AVR-352, 5FPhAC-Ada-Tyr-DArg-Asp-Ala-Ile-5FPhe-Thr-Ala-Har-Tyr(Me)-Arg-Lys-Val-Leu-Abu-Gln-Leu-Ser-Ala-Arg-Lys-Leu-Leu-Gln-Asp-Ile-Nle-DArg-Har-Ada-NH2] ({Phenylacetyl(2,3,4,5,6-F5)-12Ado}-Y[dR]DAI[Phe(F5)]TA[hArg]Y(Me)RKVL[Abu]QLSARKLLQDI[Nle][dR][hArg][12Ado]-NH2)
[1]
  In vitro relative inhibitory potency in comparison to MIA-602, HCC-1806: 4.85
[2]; 2.5 μg/day s.c.
  Tumor Growth %: 2073.0%
  % Inhibition: 22.4%
[2]; 5 μg/day s.c.
  Tumor Growth %: 1456.9%
  % Inhibition: 45.4%
[3]
  In vitro relative inhibitory potency in comparison to MIA-602, SKOV-3: 1.15*
[4]; 2.5 μg/day s.c.
  Tumor Size (mm3): 307.7 mm3
  % Inhibition: 35.9%
[4]; 5 μg/day s.c.
  Tumor Size (mm3): 199.9 mm3
  % Inhibition: 58.4%
[5]
  Tumor Growth %: 522.7%
[5]; vs control
  % Inhibition: 56.2%

## CCCC[C@H](NC(=O)[C@@H](NC(=O)[C@H](CC(=O)O)NC(=O)[C@H](CCC(N)=O)NC(=O)[C@H](CC(C)C)NC(=O)[C@H](CC(C)C)NC(=O)[C@H](CCCCN)NC(=O)[C@H](CCCNC(=N)N)NC(=O)[C@H](C)NC(=O)[C@H](CO)NC(=O)[C@H](CC(C)C)NC(=O)[C@H](CCC(N)=O)NC(=O)[C@H](CC)NC(=O)[C@H](CC(C)C)NC(=O)[C@@H](NC(=O)[C@H](CCCCN)NC(=O)[C@H](CCCNC(=N)N)NC(=O)[C@H](Cc1c(F)c(F)c(F)c(F)c1F)NC(=O)[C@H](CCCCNC(=N)N)NC(=O)[C@H](C)NC(=O)[C@@H](NC(=O)[C@H](Cc1ccc(Cl)cc1)NC(=O)[C@@H](NC(=O)[C@H](C)NC(=O)[C@H](CC(=O)O)NC(=O)[C@@H](CCCNC(=N)N)NC(=O)[C@H](Cc1ccc(O)cc1)NC(=O)CCCCCCCCCCCNC(=O)Cc1c(F)c(F)c(F)c(F)c1F)[C@@H](C)CC)[C@@H](C)O)C(C)C)[C@@H](C)CC)C(=O)N[C@H](CCCNC(=N)N)C(=O)N[C@@H](CCCCNC(=N)N)C(=O)NCCCCCCCCCCCC(N)=O [AVR-353, 5FPhAC-Ada-Tyr-DArg-Asp-Ala-Ile-Cpa-Thr-Ala-Har-5FPhe-Arg-Lys-Val-Leu-Abu-Gln-Leu-Ser-Ala-Arg-Lys-Leu-Leu-Gln-Asp-Ile-Nle-DArg-Har-Ada-NH2] ({Phenylacetyl(2,3,4,5,6-F5)-12Ado}-Y[dR]DAI[Phe(4-Cl)]TA[hArg][Phe(F5)]RKVL[Abu]QLSARKLLQDI[Nle][dR][hArg][12Ado]-NH2)
[6]; 2 μg/day s.c.
  Tumor Size (mm^3): 549.30 mm^3
  % Inhibition: 24.2%
[6]; 5 μg/day s.c.
  Tumor Size (mm^3): 494.70 mm^3
  % Inhibition: 31.8%
[1]
  In vitro relative inhibitory potency in comparison to MIA-602, HCC-1806: 9.396
[2]; 2.5 μg/day s.c.
  Tumor Growth %: 1482.8%
  % Inhibition: 44.5%
[2]; 5 μg/day s.c.
  Tumor Growth %: 1257.3%
  % Inhibition: 52.9%
[2]; 10 μg/day s.c.
  Tumor Growth %: 1005.1%
  % Inhibition: 62.4%
[3]
  In vitro relative inhibitory potency in comparison to MIA-602, SKOV-3: 1.04*
[4]; 2.5 μg/day s.c.
  Tumor Size (mm3): 357.0 mm3
  % Inhibition: 25.7%
[4]; 5 μg/day s.c.
  Tumor Size (mm3): 255.2 mm3
  % Inhibition: 46.9%
